We go through 19 compounds from US9932309B2, “2-oxo-3,4-dihydropyridine-5-carboxylates and their use” (UNIVERSITE DE LILLE 2 DROIT ET SANTE, priority 2014, dated 2018).

The target in one assay is T1, hTGR5 (Homo sapiens, UniProt Q8TDU6).
T1 construct: expressed in transfected cells; host or cells: HEK293 cells, transiently co-transfected with the pCRE TA-Luciferase reporter
T1 sequence (Q8TDU6 1-330): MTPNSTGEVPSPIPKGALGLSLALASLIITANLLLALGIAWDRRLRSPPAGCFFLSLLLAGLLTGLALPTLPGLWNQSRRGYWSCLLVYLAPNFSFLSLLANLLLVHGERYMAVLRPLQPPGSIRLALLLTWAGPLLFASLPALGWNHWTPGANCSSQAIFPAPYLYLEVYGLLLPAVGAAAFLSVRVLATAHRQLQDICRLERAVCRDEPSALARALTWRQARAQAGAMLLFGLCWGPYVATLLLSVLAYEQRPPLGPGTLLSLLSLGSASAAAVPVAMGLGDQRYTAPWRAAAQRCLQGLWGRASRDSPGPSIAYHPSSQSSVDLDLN
Nature of the assay: TGR5/CRE Luciferase Assay (hTGR5). The assay is classed as cell-based. As to conditions: for EC50: HEK 293 cells co-transfected with pCMV tag4b-TGR5h and pCRE TA-Luciferase, overnight incubation; for hTGR5 % trans: percentage of the 10 μM LCA value, HEK 293 cells transfected with hTGR5. The protocol: (§1) TGR5/CRE Luciferase Assay
(§2) In the following Tables TGR5 activation by compounds of the invention and subsequent increase in intracellular cAMP were evaluated using a luciferase reporter gene assay. Human embryonic kidney (HEK) 293 cells were transiently co-transfected with pCMV tag4b-TGR5 h (to follow hTGR5 activation) or pCMV AC6-TGR5m (to follow mTGR5 activation) expression plasmids and the pCRE TA-Luciferase reporter plasmid using the JET PEI reagent (Polyplus transfection). Transfected cells were seeded in 96-well plates and incubated overnight with the test compounds at increasing concentrations tested in duplicate. Lithocolic acid (LCA) at 10 μM was used as a positive reference compound. The cAMP-dependent luciferase expression was followed using the BrightGlo reagent according to the manufacturer (Promega) instructions. Luminescence was read with a Mithras plate reader (Berthold) or a Victor3™ V1420 (Perkin Elmer). […] Concentration-response curves were fitted by a nonlinear regression analysis to a 4 parameter logistic equation

The target of the next assay is T2, mTGR5 (Mus musculus, UniProt Q80SS6).
T2 construct: expressed in transfected cells; host or cells: HEK293 cells, transiently co-transfected with the pCRE TA-Luciferase reporter
T2 sequence (Q80SS6 1-329): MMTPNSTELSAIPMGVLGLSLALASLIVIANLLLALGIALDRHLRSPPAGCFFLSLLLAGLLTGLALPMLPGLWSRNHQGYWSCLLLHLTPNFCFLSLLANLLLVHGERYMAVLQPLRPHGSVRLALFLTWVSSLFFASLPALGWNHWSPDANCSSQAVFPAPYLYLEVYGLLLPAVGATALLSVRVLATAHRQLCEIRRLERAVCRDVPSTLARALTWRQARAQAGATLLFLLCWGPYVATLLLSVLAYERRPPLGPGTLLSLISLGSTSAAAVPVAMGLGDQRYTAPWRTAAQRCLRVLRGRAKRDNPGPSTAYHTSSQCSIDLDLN
Description: TGR5/CRE Luciferase Assay (mTGR5). As to conditions: for EC50: HEK 293 cells co-transfected with pCMV AC6-TGR5m and pCRE TA-Luciferase, overnight incubation; for mTGR5 % trans: percentage of the 10 μM LCA value, HEK 293 cells transfected with mTGR5. The assay is classed as cell-based. The protocol:
as §1, §2

What is called EC50 is the concentration that produces a half-maximal response. Read a high EC50 as lower potency in that assay.

On to `CC1=C(C(=O)OCc2ccc(OCCS(=O)(=O)O)cc2)[C@@H](c2ccc(Cl)nc2)CC(=O)N1C[C@@H]1CCCO1.N` (racemic) [Example 153, Ammonium,2-[4-[[(4S)-4-(6-chloro-3-pyridyl)-6-methyl-2-oxo-1-[[(2R)-tetrahydrofuran-2-yl]methyl]-3,4-dihydropyridine-5-carbonyl]oxymethyl]phenoxy]ethanesulfonate and ammonium,2-[4-[[(4R)-4-(6-chloro-3-pyridyl)-6-methyl-2-oxo-1-[[(2S)-tetrahydrofuran-2-yl]methyl]-3,4-dihydropyridine-5-carbonyl]oxymethyl]phenoxy]ethanesulfonate], for which, on hTGR5, a half-maximal effect (EC50) was put at 0.13 µM and the hTGR5 % trans was 101%. At mTGR5, this compound came in with a concentration giving a half-maximal response (EC50) of 0.13 µM and a mTGR5 % trans of 102%.
Turning to `CC1=C(C(=O)OCc2ccccc2OCCS(=O)(=O)O)[C@@H](c2ccc(Cl)nc2)CC(=O)N1C[C@@H]1CCCO1.N` (racemic) [Example 158, Ammonium, 2-[2-[[(4S)-4-(6-chloro-3-pyridyl)-6-methyl-2-oxo-1-[[(2R)-tetrahydrofuran-2-yl]methyl]-3,4-dihydropyridine-5-carbonyl]oxymethyl]phenoxy]ethanesulfonate and ammonium,2-[2-[[(4R)-4-(6-chloro-3-pyridyl)-6-methyl-2-oxo-1-[[(2S)-tetrahydrofuran-2-yl]methyl]-3,4-dihydropyridine-5-carbonyl]oxymethyl]phenoxy]ethanesulfonate], on hTGR5, the EC50 was determined as 3.6 µM and the hTGR5 % trans is reported as 74%. On mTGR5, this compound registered an EC50 of 1.3 µM and a mTGR5 % trans of 97%.
At hTGR5, `CC1=C(C(=O)OCc2ccccc2)C(c2ccc(C)cc2)CC(=O)N1` (centres unmarked) [Compound 3, 2-Methyl-6-oxo-4-p-tolyl-1,4,5,6-tetrahydro-pyridine-3-carboxylic acid benzyl ester] registered an EC50 of 7.4 µM and a hTGR5 % trans of 65%. In addition, on mTGR5, the EC50 amounted to 10.4 µM and the mTGR5 % trans was found to be 45%.
At hTGR5, `COc1ccccc1C1CC(=O)NC(C)=C1C(=O)OCc1ccccc1` (centres unmarked) [Compound 4, 4-(2-Methoxy-phenyl)-2-methyl-6-oxo-1,4,5,6-tetrahydro-pyridine-3-carboxylic acid benzyl ester] registered an EC50 of 10 µM and a hTGR5 % trans of 17%. Also, on mTGR5, it took 8.5 µM to reach a half-maximal effect (EC50) and the mTGR5 % trans came to 18%.
The matching figures for `COc1cccc(C2CC(=O)NC(C)=C2C(=O)OCc2ccccc2)c1` (centres unmarked) [Compound 5, 4-(3-Methoxy-phenyl)-2-methyl-6-oxo-1,4,5,6-tetrahydro-pyridine-3-carboxylic acid benzyl ester]: 10.6 µM, 31%, 11.1 µM and 34%.
As for `CC1=C(C(=O)OCc2ccccc2)C(c2ccccc2C(F)(F)F)CC(=O)N1` (centres unmarked) [Compound 7, 2-Methyl-6-oxo-4-(2-trifluoromethyl-phenyl)-1,4,5,6-tetrahydro-pyridine-3-carboxylic acid benzyl ester], at hTGR5, the half-maximal effective concentration (EC50) stood at 5 µM and the hTGR5 % trans came to 22%. This compound also registered a mTGR5 % trans on mTGR5 of 14%.
With `CC1=C(C(=O)OCc2ccccc2)C(c2ccc(C(F)(F)F)cc2)CC(=O)N1` (centres unmarked) [Compound 9, 2-Methyl-6-oxo-4-(4-trifluoromethyl-phenyl)-1,4,5,6-tetrahydro-pyridine-3-carboxylic acid benzyl ester], at hTGR5, a half-maximal effect (EC50) was put at 1.5 µM and the hTGR5 % trans turned out to be 48%. Also, at mTGR5, a half-maximal response (EC50) required 1.4 µM and the mTGR5 % trans was 37%.
The matching figures for `CC1=C(C(=O)OCc2ccccc2)C(c2ccc(F)cc2)CC(=O)N1` (centres unmarked) [Compound 13, 4-(4-Fluoro-phenyl)-2-methyl-6-oxo-1,4,5,6-tetrahydro-pyridine-3-carboxylic acid benzyl ester]: 2.6 µM, 40%, 4.2 µM and 37%.
The like results for `CC1=C(C(=O)OCc2ccccc2)C(c2ccccc2)CC(=O)N1` (centres unmarked) [Compound 14, 2-Methyl-6-oxo-4-phenyl-1,4,5,6-tetrahydro-pyridine-3-carboxylic acid benzyl ester] were, in that order, 7.6 µM, 30%, 10.3 µM and 18%.
Consider `CC1=C(C(=O)OCc2ccccc2)C(c2ccc(Cl)cc2)CC(=O)N1C` (centres unmarked) [Compound 17, 4-(4-Chloro-phenyl)-1,2-dimethyl-6-oxo-1,4,5,6-tetrahydro-pyridine-3-carboxylic acid benzyl ester], for which the concentration giving a half-maximal response (EC50) at hTGR5 came to 0.6 µM; at mTGR5, 1.4 µM.
`COCCC1=C(C(=O)OCc2ccccc2)C(c2ccc(Cl)cc2)CC(=O)N1` (centres unmarked) [Compound 22, benzyl 4-(4-chlorophenyl)-6-(2-methoxyethyl)-2-oxo-3,4-dihydro-1H-pyridine-5-carboxylate]: at hTGR5, a half-maximal effect (EC50) was put at 3.51 µM and the hTGR5 % trans stood at 36%. At mTGR5, the EC50 amounted to 4.3 µM and the mTGR5 % trans worked out at 44%.
For `O=C1CC(c2ccc(Cl)cc2)C(C(=O)NCc2ccccc2)=CN1` (centres unmarked) [Compound 25, N-benzyl-4-(4-chlorophenyl)-2-oxo-3,4-dihydro-1H-pyridine-5-carboxamide], on hTGR5, the EC50 came out at 1.22 µM and the hTGR5 % trans is given as 43%. On mTGR5, this compound had an EC50 of 0.5 µM and a mTGR5 % trans of 36%.
The matching figures for `CN1C=C(C(=O)NCc2ccccc2)C(c2ccc(Cl)cc2)CC1=O` (centres unmarked) [Compound 26, N-benzyl-4-(4-chlorophenyl)-1-methyl-2-oxo-3,4-dihydropyridine-5-carboxamide]: 4.6 µM, 10%, 1.8 µM and 20%.
With `O=C(OCc1ccccc1)C1=CN(CC2CC2)C(=O)CC1c1ccc(Cl)cc1` (centres unmarked) [Compound 29, Benzyl 4-(4-chlorophenyl)-1-(cyclopropylmethyl)-2-oxo-3,4-dihydropyridine-5-carboxylate], on hTGR5, the EC50 worked out at 1.26 µM and the hTGR5 % trans came out at 59%. At mTGR5, this compound registered an EC50 of 1.5 µM and a mTGR5 % trans of 37%.
The like results for `O=C(NCc1ccccc1)C1=CN(CC2CC2)C(=O)CC1c1ccc(Cl)cc1` (centres unmarked) [Compound 30, N-benzyl-4-(4-chlorophenyl)-1-(cyclopropylmethyl)-2-oxo-3,4-dihydropyridine-5-carboxamide] were, in that order, 1.5 µM, 16%, 3.9 µM and 12%.
Consider `COCCN1C=C(C(=O)OCc2ccccc2)C(c2ccc(Cl)cc2)CC1=O` (centres unmarked) [Compound 32, Benzyl 4-(4-chlorophenyl)-1-(2-methoxyethyl)-2-oxo-3,4-dihydropyridine-5-carboxylate], for which, on hTGR5, the concentration giving a half-maximal response (EC50) is 0.6 µM and the hTGR5 % trans came to 77%. On mTGR5, the midpoint of the response, the EC50, lay at 1.1 µM and the mTGR5 % trans is 55%.
The like results for `COCCN1C=C(C(=O)NCc2ccccc2)C(c2ccc(Cl)cc2)CC1=O` (centres unmarked) [Compound 33, N-benzyl-4-(4-chlorophenyl)-1-(2-methoxyethyl)-2-oxo-3,4-dihydropyridine-5-carboxamide] were, in that order, 6.4 µM, 42%, 11 µM and 14%.
At hTGR5, `CN1C=C(C(=O)N(C)Cc2ccccc2)C(c2ccc(Cl)cc2)CC1=O` (centres unmarked) [Compound 33a, N-benzyl-4-(4-chlorophenyl)-N,1-dimethyl-2-oxo-3,4-dihydropyridine-5-carboxamide] returned an EC50 of 39 µM and a hTGR5 % trans of 37%. Further, on mTGR5, the EC50 worked out at 1.1 µM and the mTGR5 % trans came out at 16%.
On to `COCCN1C(=O)CC(c2ccc(Cl)cc2)C(C(=O)OCc2ccccc2)=C1C` (centres unmarked) [Compound 37, Benzyl 4-(4-chlorophenyl)-1-(2-methoxyethyl)-6-methyl-2-oxo-3,4-dihydropyridine-5-carboxylate], for which the EC50 at hTGR5 came out at 0.3 µM; on mTGR5, 0.6 µM.
